Reference: patent publication US12545695B2, “Compounds for inhibiting neovascularization factors and use thereof” (UNIST (ULSAN NATIONAL INSTITUTE OF SCIENCE AND TECHNOLOGY), priority 2019, dated 2026)

Columns and labels:
[1] = system: neovascularization factors; test: Expression of neovascularization factors in Muller cells (western blot / PCR RNA level analysis); assay type: cell-based; conditions: MIO-M1, 1% O2 (FIG. 9)
Experimental: Muller cells were treated with gamitrinib and SMX at 3 uM and cultured in a 1% O2 environment for 8 hours, and then total RNA was extracted (Qiagen, total RNA extraction kit). cDNA was synthesized from 1 ug of total RNA (NEB, cDNA synthesis kit). After angiogenic factors were synthesized using PCR, the RNA level was analyzed by agarose electrophoresis.
Muller cells (MIO-M1) were cultured at 37° C. and 5% CO2, and DMEM-low glucose (Sigma) including 10% fetal bovine serum and 1% penicillin & streptomycin was used as the medium. A hypoxic chamber was maintained at 37° C., 5% CO2 and 1% O2. Muller cells (MIO-M1) were seeded in the number of 4×10^5 on a 60-millimeter plate and cultured in 3 ml of the medium for 24 hours. The next day, the cells were treated with SMx, a mitochondrial heat shock protein 90 (TRAP1) inhibitor, and gamitrinib and PU-H71, which are previously developed N-terminal domain inhibitors of hsp90s, according to the concentrations shown in the drawing, and cultured in a hypoxic chamber for 24 hours. Whole cell lysates were made from the cultured cells, electrophoresed, transferred to a PVDF membrane, and then treated with a primary antibody at 4° C. for 18 hours. The next day, the whole cell lysates were treated with a secondary antibody for 1 hour and protein expression was analyzed using a western blotting detection reagent.

[2] = system: oxygen-induced retinopathy mouse model; test: Oxygen-induced retinopathy mouse model, eye drop administration, retinal vascular analysis; assay type: in vivo, C57BL/6J mice; conditions: 1 mM in Liposic, eye drops 3 times a day, P12 to P17; versus control eye (FIG. 18, 19)
Source text: An oxygen-induced retinopathy mouse model was induced by rearing young C57BL/6J (Hyochang Science Inc.) mice aged 7 days after birth (P7) in a hyperoxic chamber (Coy Lab. in vivo chamber, 75% O2) for 5 days (P12), and then rearing the mice in a normoxic environment for 5 days (P17).
An oxygen-induced retinopathy mouse model was induced by rearing young C57BL/6J (Hyochang Science Inc.) mice aged 7 days after birth (P7) in a hyperoxic chamber (Coy Lab. in vivo chamber, 75% O2) for 5 days (P12), and then rearing the mice in a normoxic environment for 5 days (P17). SMx was diluted with Liposic (solvent) to 1 mM during P12 to P17 (5 days), which is the period of time when oxygen-induced retinopathy is induced from normal oxygen, and then administered by eye drops 3 times a day. The right eye was administered SMx, and the left eye was administered the control Liposic.
(§1) The oxygen-induced retinopathy mouse model was formed, and then perfused with 1×PBS and 4% PFA. After mouse eyes were extracted and fixed in 4% PFA, the retinas were isolated. The isolated retinas were washed with 1×PBS, and then blocked (0.1% BSA, 0.1% Triton X-100 in 1×PBS) at room temperature for 1 hour. The retinas were treated with a CD31 blood-vessel staining antibody (CD31, Cell Signaling, 1:100) overnight at 4° C. […] Blood vessel staining was analyzed under a fluorescence microscope (Zen, Axio Zoom). […]

[3] = system: oxygen-induced retinopathy mouse model; test: Oxygen-induced retinopathy mouse model, intraocular injection, retinal vascular analysis; assay type: in vivo, C57BL/6J mice; conditions: 1 ul of 0.15 mM intraocularly injected once at P12, analysis P17 (FIG. 17)
Experimental: An oxygen-induced retinopathy mouse model was induced by rearing young C57BL/6J (Hyochang Science Inc.) mice aged 7 days after birth (P7) in a hyperoxic chamber (Coy Lab. in vivo chamber, 75% O2) for 5 days (P12), and then rearing the mice in a normoxic environment for 5 days (P17). After the young mice were removed from the hyperoxic chamber (P12), 1 ul of SMX was intraocularly injected once at a concentration of 0.15 mM (0.1% DMSO). The SMX used for ocular injection was used after being diluted in phosphate buffer saline (1×PBS) to 0.1%, and 0.1% DMSO in 1×pbs was used in control mice. In the case of Eylea (aflibercept, anti-VEGFab), 40 ug was diluted in 1 ul and 1 ul was intraocularly injected.
as §1
The oxygen-induced retinopathy mouse model was formed, and then perfused with 1×PBS and 4% PFA. […] Blood vessel staining was analyzed under a fluorescence microscope (Zen, Axio Zoom). […]

[4] = system: TRAP-1; test: Pull-down assay: client proteins SIRT3 and SDHB on GST-TRAP1 beads; assay type: binding; conditions: TRAP1-bead form with isolated mitochondria and drug, 4° C., 18 hours (FIG. 14)
Experimental: A pull-down assay was performed to confirm whether SMx competitively binds to SIRT3 and SDHB, which are known as client proteins of TRAP-1. TRAP1 protein in the GST fusion form was purified from bacteria cells and then bound to glutathione beads to make a TRAP1-bead form, and then the TRAP1-bead form was bound to the mitochondria isolated from mammalian cells (Thermo Scientific mitochondria isolation kit) with a drug at 4° C. for 18 hours. The cells were treated with SMx, and gamitrinib and PU-H71, which are previously developed N-terminal domain inhibitors of hsp90s, as the drugs, according to the concentrations shown in the drawing. […] This is strong evidence that SMx has the ability to bind to the middle domain of TRAP-1.

- binding of the client protein (SIRT3, SDHB) to TRAP-1 [4]: significantly reduced
Structure (SMILES): COC1=C(OC)C(=O)C(CCCCCCCCCC[P+](c2ccccc2)(c2ccccc2)c2ccccc2)=C(C)C1=O [SMx]
- expression of well-known neovascularization factors [1]: suppressed
- avascular area [2]: significantly reduced
- neovascular area [2]: significantly reduced
- avascular area of the retina [3]: significantly reduced compared to the Eylea-injected mouse retina
- neovascular area of the retina [3]: reduced to the same level as that of the Eylea-injected mouse retina
